Assay results from paper PMC4747952, “Development of TASP0410457 (TASP457), a novel dihydroquinolinone derivative as a PET radioligand for central histamine H3 receptors” (EJNMMI Research, 2016).

Target: T1, H3Rs (Macaca mulatta, UniProt Q865E1)
T1 construct: from tissue; host or cells: brain of living rhesus monkeys
Assay: PET in conscious rhesus monkey
Format: in vivo, rhesus monkey (Macaca mulatta)
Method: A male rhesus monkey (Macaca mulatta, weighing 6–7 kg) was used for a comparative PET analysis of [^11C]TASP0410457 and [^11C]TASP0434988. PET scans were performed using a high-resolution SHR-7700 animal PET camera (Hamamatsu Photonics, Hamamatsu, Japan). Following transmission scans for attenuation correction using a ^68Ge-^68Ga point source, emission scans were performed on a conscious monkey as described previously, in 3D acquisition mode (frames: 10 s × 12, 30 s × 6, 1 min × 5, 2 min × 5 and 5 min × 14) for 90 min after the intravenous injection of [^11C]TASP0410457 (169–176 MBq) or [^11C]TASP0434988 (173–188 MBq). Briefly, the monkey was immobilized by joining the acrylic cap on the monkey head with the fixation device during PET scans. To assess a homologous competition for the target binding sites, unlabeled TASP0410457 or TASP0434988 was injected intravenously at a dose of 1 mg/kg at 30 s before injection of the corresponding radioligand.
Emission scan images were reconstructed using a 4.0-mm Colsher filter. ROIs were placed on the anterior cingulate cortex, striatum, thalamus, hippocampus, cerebellum, frontal cortex, temporal cortex, occipital cortex, and pons-medulla using PMOD software, with reference to an MRI template as described previously. Tissue TACs were generated as in the rat PET image analysis.

T1 sequence (Q865E1 1-445): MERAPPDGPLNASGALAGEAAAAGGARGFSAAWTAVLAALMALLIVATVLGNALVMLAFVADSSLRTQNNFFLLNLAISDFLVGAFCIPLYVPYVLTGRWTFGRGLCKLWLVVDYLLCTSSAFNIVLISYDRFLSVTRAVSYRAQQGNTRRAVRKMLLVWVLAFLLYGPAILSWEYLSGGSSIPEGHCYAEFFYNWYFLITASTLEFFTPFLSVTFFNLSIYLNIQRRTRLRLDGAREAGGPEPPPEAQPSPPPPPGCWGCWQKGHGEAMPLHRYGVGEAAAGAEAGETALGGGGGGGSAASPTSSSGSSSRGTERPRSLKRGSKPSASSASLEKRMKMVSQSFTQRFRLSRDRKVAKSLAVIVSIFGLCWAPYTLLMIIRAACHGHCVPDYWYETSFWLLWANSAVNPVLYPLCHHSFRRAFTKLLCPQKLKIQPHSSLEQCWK

peak SUV in the striatum (another monkey in a conscious condition (additional PET study)): 3.0 | time of peak brain uptake after the injection (conscious monkey PET): ≤ 30 min | peak SUV in the striatum (first conscious monkey): 3.4
SMILES: [11CH3]Oc1ccc(N2C(=O)CCc3cc(OC4CCN(C5CCC5)CC4)ccc32)cn1 [[^11C]TASP0410457]
